# In US9695155B2, “Herbicidal substituted pyrimidinyloxy benzene compounds” (E. I. DU PONT DE NEMOURS AND COMPANY, priority 2013, dated 2017):
# How the values were obtained:
# field violet = assay: Test D preemergence; type: in vivo, Viola arvensis; conditions: Viola arvensis, pre-emergence
# Method in brief: (§1)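 Solvent/surfactant formulations are sprayed pre (silt loam) or post (1–4 leaf plants, 2–18 cm). Plants stay 7–21 days in controlled conditions before a visual 0–100 score is given.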
# deadnettle = assay: Test D preemergence; type: in vivo, Lamium amplexicaule; conditions: Lamium amplexicaule, pre-emergence
# Method in brief: as §1
# kochia [1] = assay: Test D postemergence; type: in vivo, Kochia scoparia; conditions: Bassia scoparia, post-emergence
# Method in brief: as §1
# oilseed rape = assay: Test D postemergence; type: in vivo, Brassica napus; conditions: Brassica napus, post-emergence
# Method in brief: as §1
# windgrass = assay: Test D preemergence; type: in vivo, Apera spica-venti; conditions: Apera spica-venti, pre-emergence
# Method in brief: as §1
# Italian ryegrass = assay: Test D postemergence; type: in vivo, Lolium multiflorum; conditions: Lolium multiflorum, post-emergence
# Method in brief: as §1
# kochia [2] = assay: Test D preemergence; type: in vivo, Kochia scoparia; conditions: Bassia scoparia, pre-emergence
# Method in brief: as §1
# field poppy = assay: Test D preemergence; type: in vivo, Papaver rhoeas; conditions: Papaver rhoeas, pre-emergence
# Method in brief: as §1
# wild mustard = assay: Test D postemergence; type: in vivo, Sinapis arvensis; conditions: Brassica, post-emergence
# Method in brief: as §1
# chickweed = assay: Test D postemergence; type: in vivo, Stellaria media; conditions: Stellaria media, post-emergence
# Method in brief: as §1
structure (smiles),measurement,setting,value
"FC(F)(F)c1cn(-c2ccccc2Oc2ncc(Cl)cn2)nn1 [Compound 166, 5-chloro-2-[2-[4-(trifluoromethyl)-1H-1,2,3-triazol-1-yl]phenoxy]pyrimidine]",pest or weed control at 16 g/ha,"field violet; 16 g ai/ha, scale 0 (no effect) to 100 (complete control), read-out: Plant response rating, Field Violet",70%
same,pest or weed control at 31 g/ha,"field violet; 31 g ai/ha, scale 0-100, read-out: Plant response rating, Field Violet",100%
same,pest or weed control at 62 g/ha,"field violet; 62 g ai/ha, scale 0-100, read-out: Plant response rating, Field Violet",100%
same,pest or weed control at 125 g/ha,"field violet; 125 g ai/ha, scale 0-100, read-out: Plant response rating, Field Violet",100%
same,pest or weed control at 16 g/ha,"deadnettle; 16 g ai/ha, scale 0 (no effect) to 100 (complete control), read-out: Plant response rating, Deadnettle",70%
same,pest or weed control at 31 g/ha,"deadnettle; 31 g ai/ha, scale 0-100, read-out: Plant response rating, Deadnettle",75%
same,pest or weed control at 62 g/ha,"deadnettle; 62 g ai/ha, scale 0-100, read-out: Plant response rating, Deadnettle",100%
same,pest or weed control at 125 g/ha,"deadnettle; 125 g ai/ha, scale 0-100, read-out: Plant response rating, Deadnettle",100%
same,pest or weed control at 16 g/ha,"kochia [1]; 16 g ai/ha, scale 0-100, read-out: Plant response rating, Kochia",65%
same,pest or weed control at 31 g/ha,"kochia [1]; 31 g ai/ha, scale 0 to 100 (0 no effect, 100 complete control), read-out: Plant response rating, Kochia",65%
same,pest or weed control at 62 g/ha,"kochia [1]; 62 g ai/ha, scale 0 to 100 (0 no effect, 100 complete control), read-out: Plant response rating, Kochia",90%
same,pest or weed control at 125 g/ha,"kochia [1]; 125 g ai/ha, scale 0 to 100 (0 no effect, 100 complete control), read-out: Plant response rating, Kochia",95%
same,plant injury at 16 g/ha,"oilseed rape; 16 g ai/ha, scale 0-100, read-out: Plant response rating, Oilseed Rape",60%
same,plant injury at 31 g/ha,"oilseed rape; 31 g ai/ha, scale 0 to 100 (0 no effect, 100 complete control), read-out: Plant response rating, Oilseed Rape",65%
same,plant injury at 62 g/ha,"oilseed rape; 62 g ai/ha, scale 0 to 100 (0 no effect, 100 complete control), read-out: Plant response rating, Oilseed Rape",95%
same,plant injury at 125 g/ha,"oilseed rape; 125 g ai/ha, scale 0 to 100 (0 no effect, 100 complete control), read-out: Plant response rating, Oilseed Rape",100%
same,pest or weed control at 16 g/ha,"windgrass; 16 g ai/ha, scale 0 (no effect) to 100 (complete control), read-out: Plant response rating, Windgrass",50%
same,pest or weed control at 31 g/ha,"windgrass; 31 g ai/ha, scale 0 (no effect) to 100 (complete control), read-out: Plant response rating, Windgrass",75%
same,pest or weed control at 62 g/ha,"windgrass; 62 g ai/ha, scale 0-100, read-out: Plant response rating, Windgrass",100%
same,pest or weed control at 125 g/ha,"windgrass; 125 g ai/ha, scale 0-100, read-out: Plant response rating, Windgrass",100%
same,pest or weed control at 16 g/ha,"Italian ryegrass; 16 g ai/ha, scale 0-100, read-out: Plant response rating, Ryegrass, Italian",10%
same,pest or weed control at 31 g/ha,"Italian ryegrass; 31 g ai/ha, scale 0 to 100 (0 no effect, 100 complete control), read-out: Plant response rating, Ryegrass, Italian",20%
same,pest or weed control at 62 g/ha,"Italian ryegrass; 62 g ai/ha, scale 0 to 100 (0 no effect, 100 complete control), read-out: Plant response rating, Ryegrass, Italian",25%
same,pest or weed control at 125 g/ha,"Italian ryegrass; 125 g ai/ha, scale 0 to 100 (0 no effect, 100 complete control), read-out: Plant response rating, Ryegrass, Italian",40%
same,pest or weed control at 16 g/ha,"kochia [2]; 16 g ai/ha, scale 0 (no effect) to 100 (complete control), read-out: Plant response rating, Kochia",35%
same,pest or weed control at 31 g/ha,"kochia [2]; 31 g ai/ha, scale 0-100, read-out: Plant response rating, Kochia",65%
same,pest or weed control at 62 g/ha,"kochia [2]; 62 g ai/ha, scale 0-100, read-out: Plant response rating, Kochia",95%
same,pest or weed control at 125 g/ha,"kochia [2]; 125 g ai/ha, scale 0-100, read-out: Plant response rating, Kochia",100%
same,pest or weed control at 16 g/ha,"field poppy; 16 g ai/ha, scale 0 (no effect) to 100 (complete control), read-out: Plant response rating, Field Poppy",100%
same,pest or weed control at 31 g/ha,"field poppy; 31 g ai/ha, scale 0-100, read-out: Plant response rating, Field Poppy",100%
same,pest or weed control at 62 g/ha,"field poppy; 62 g ai/ha, scale 0-100, read-out: Plant response rating, Field Poppy",100%
same,pest or weed control at 125 g/ha,"field poppy; 125 g ai/ha, scale 0-100, read-out: Plant response rating, Field Poppy",100%
same,pest or weed control at 16 g/ha,"wild mustard; 16 g ai/ha, scale 0-100, read-out: Plant response rating, Mustard, Wild",75%
same,pest or weed control at 31 g/ha,"wild mustard; 31 g ai/ha, scale 0 to 100 (0 no effect, 100 complete control), read-out: Plant response rating, Mustard, Wild",80%
same,pest or weed control at 62 g/ha,"wild mustard; 62 g ai/ha, scale 0 to 100 (0 no effect, 100 complete control), read-out: Plant response rating, Mustard, Wild",85%
same,pest or weed control at 125 g/ha,"wild mustard; 125 g ai/ha, scale 0 to 100 (0 no effect, 100 complete control), read-out: Plant response rating, Mustard, Wild",100%
same,pest or weed control at 16 g/ha,"chickweed; 16 g ai/ha, scale 0-100, read-out: Plant response rating, Chickweed",55%
same,pest or weed control at 31 g/ha,"chickweed; 31 g ai/ha, scale 0 to 100 (0 no effect, 100 complete control), read-out: Plant response rating, Chickweed",65%
same,pest or weed control at 62 g/ha,"chickweed; 62 g ai/ha, scale 0 to 100 (0 no effect, 100 complete control), read-out: Plant response rating, Chickweed",80%
same,pest or weed control at 125 g/ha,"chickweed; 125 g ai/ha, scale 0 to 100 (0 no effect, 100 complete control), read-out: Plant response rating, Chickweed",90%
